These results are taken from patent publication US11014933B2 (priority 2018, dated 2021).

Structures can show the parent of a compound that is named as a salt. Where two headings read alike, the source gives them in different places.

Series [1] deals with T1, KOR (Homo sapiens, UniProt P41145).
T1 construct: expressed in transfected cells; host or cells: CHO
Put plainly: biochemical. It is filed as binding.

Series [2] addresses T2, MOR (Mus musculus, UniProt P42866). As to conditions: for EC50: read-out: MOR 35S-GTP[γS] Binding EC50; for MOR 35S-GTP[γS] Binding % Emax of DAMGO: relative to 3 μM DAMGO.
The target in series [3] is T2, MOR. In words: Competition radioligand binding, MOR ([3H]naloxone). Set-up: expressed in transfected cells; host or cells: CHO. To be noted: CHO cell membranes.
The target of series [4] is T3, DOR (Homo sapiens, UniProt P41143). Put plainly: biochemical. It is filed as binding. Also on record: expressed in transfected cells; host or cells: CHO.
Series [5] has as its target T2, MOR. Also on record: expressed in transfected cells; host or cells: CHO. To be noted: read-out: Ki MOR; [3H]naloxone; values from reference 44a/57a; cited from earlier work.
Series [6] has as its target T3, DOR. As to conditions: values from reference 44a/57a; cited from earlier work.
Series [7] concerns the target T2, MOR. As to conditions: values from reference 44a/57a, cited from earlier work.
Series [8] deals with T1, KOR. To be noted: values from reference 44a/57a; cited from earlier work.
Series [9] deals with T2, MOR. Put plainly: Desensitization study: DAMGO-induced [35S]GTPγS binding after ligand pretreatment of mMOR-CHO cells. Set-up: expressed in transfected cells; host or cells: CHO. It is filed as cell-based.
The target of series [10] is T2, MOR. To be noted: 24 h pretreatment (DAMGO, morphine 5 μM; nalbuphine, naltrexone 1 μM); previously published; cited from earlier work.
The next series relates to Swiss Webster mice. Put plainly: Tail immersion assay (agonism, and antagonism of morphine). In kind it is in vivo, mouse. To be noted: for AD50 (antagonism of morphine antinociception): 95% confidence level in brackets; for % MPE of morphine (10 mg/kg) in the presence of test compound (antagonism): test compound 10 mg/kg s.c., 5 min before morphine.
Series [11] has as its target T2, MOR. Put plainly: biochemical.
The subject of series [12] is Caco-2 monolayers. As to conditions: related study, cited from earlier work.
The test system of a further series is morphine-pelleted mice. Put plainly: Withdrawal study in morphine-pelleted mice.
The target of another series is mouse μ opioid receptor (Mus musculus, UniProt P42866). In words: Calcium mobilization assay in mMOR-CHO cells. It is filed as cell-based.
In series [13] the test system is Caco-2 monolayers. In words: Caco-2 bidirectional transport assay.
The next series relates to P-gp. Put plainly: Caco-2 bidirectional transport assay. As to conditions: human.
The next series deals with T4, rat MOR (Rattus norvegicus, UniProt P33535).
T4 construct: expressed in transfected cells; host or cells: Neuro2A murine neuroblastoma cells (clones H38 and H16)
In kind it is cell-based.

In another series the test system is C57BL/6J mice. Put plainly: Warm-water tail-withdrawal test with cumulative morphine dosing. It is filed as in vivo, mouse.
The mark [14] stands for this setting: read-out: MOR 35S-GTP[γS] Binding % Emax of DAMGO, relative to 3 μM DAMGO.

T2 sequence (P42866 whole entry): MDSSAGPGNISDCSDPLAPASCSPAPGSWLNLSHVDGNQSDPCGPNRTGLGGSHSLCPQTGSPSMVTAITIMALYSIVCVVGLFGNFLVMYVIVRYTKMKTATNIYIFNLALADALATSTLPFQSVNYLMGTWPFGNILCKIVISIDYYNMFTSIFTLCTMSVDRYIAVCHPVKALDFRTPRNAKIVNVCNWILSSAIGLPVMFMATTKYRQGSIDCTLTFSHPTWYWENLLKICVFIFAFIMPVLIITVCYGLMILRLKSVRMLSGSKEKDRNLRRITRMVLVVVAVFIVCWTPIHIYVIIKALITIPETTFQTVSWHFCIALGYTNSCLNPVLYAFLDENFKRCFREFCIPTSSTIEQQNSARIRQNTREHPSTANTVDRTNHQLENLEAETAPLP
T3 sequence (P41143 whole entry): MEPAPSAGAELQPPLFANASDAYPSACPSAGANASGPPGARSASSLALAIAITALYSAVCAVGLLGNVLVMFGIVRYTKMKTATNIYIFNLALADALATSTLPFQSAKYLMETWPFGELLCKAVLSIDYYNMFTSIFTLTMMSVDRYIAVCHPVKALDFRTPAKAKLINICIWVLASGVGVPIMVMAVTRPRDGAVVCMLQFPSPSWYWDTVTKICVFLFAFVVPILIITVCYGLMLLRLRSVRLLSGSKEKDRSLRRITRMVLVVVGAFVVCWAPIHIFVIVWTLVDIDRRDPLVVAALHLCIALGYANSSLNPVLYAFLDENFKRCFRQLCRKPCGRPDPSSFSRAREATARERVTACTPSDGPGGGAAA
T1 sequence (P41145 whole entry): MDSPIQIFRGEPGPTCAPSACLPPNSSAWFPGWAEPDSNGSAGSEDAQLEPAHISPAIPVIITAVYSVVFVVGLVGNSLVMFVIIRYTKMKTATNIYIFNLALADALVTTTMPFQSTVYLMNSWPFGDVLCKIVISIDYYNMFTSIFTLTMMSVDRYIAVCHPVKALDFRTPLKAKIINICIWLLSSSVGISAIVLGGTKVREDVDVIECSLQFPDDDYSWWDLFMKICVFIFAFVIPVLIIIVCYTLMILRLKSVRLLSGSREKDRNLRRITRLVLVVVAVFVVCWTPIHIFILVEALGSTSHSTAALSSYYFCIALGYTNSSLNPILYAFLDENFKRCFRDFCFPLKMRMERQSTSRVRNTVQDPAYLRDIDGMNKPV
Chain of mouse μ opioid receptor (P42866 whole entry): as the sequence (P42866 whole entry) above
T4 sequence (P33535 whole entry): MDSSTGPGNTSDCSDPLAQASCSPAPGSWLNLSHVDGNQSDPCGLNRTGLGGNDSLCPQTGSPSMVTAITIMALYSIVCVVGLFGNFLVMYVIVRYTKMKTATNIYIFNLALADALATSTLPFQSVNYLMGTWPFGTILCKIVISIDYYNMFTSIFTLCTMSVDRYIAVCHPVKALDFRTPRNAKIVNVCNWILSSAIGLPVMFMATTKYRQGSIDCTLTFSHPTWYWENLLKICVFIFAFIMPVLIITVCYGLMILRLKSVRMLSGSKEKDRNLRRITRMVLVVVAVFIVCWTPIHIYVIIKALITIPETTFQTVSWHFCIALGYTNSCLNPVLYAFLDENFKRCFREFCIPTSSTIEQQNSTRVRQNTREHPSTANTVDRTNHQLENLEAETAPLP

With `O=C(Cc1ccncc1C(F)(F)F)N[C@@H]1CC[C@@]2(O)[C@H]3Cc4ccc(O)c5c4[C@@]2(CCN3CC2CC2)[C@H]1O5` [Compound 4, 17-Cyclopropylmetyl-3,14β-dihydroxy-4,5α-epoxy-6β-[(3′-trifluromethyl-4′-pyridyl)acetamido]morphinan], the “Selectivity κ/μ” value on KOR [1] is recorded as 29.1. The Ki at KOR [1] (read-out: Ki KOR) turned out to be 12.5 ± 0.89 nM; at MOR [3], 0.43 ± 0.01 nM; at DOR [4] (read-out: Ki DOR), 61.8 ± 5 nM. Besides, the EC50 at MOR [2] (MOR-CHO membranes) worked out at 1.38 ± 0.2 nM. The “MOR 35S-GTP[γS] Binding % Emax of DAMGO” value at MOR [2] is given as 31.88 ± 3.39%. In addition, the “Selectivity δ/μ” value at DOR [4] is 143.7.

For the compound `Cc1cnccc1C(=O)N[C@@H]1CC[C@@]2(O)[C@H]3Cc4ccc(O)c5c4[C@@]2(CCN3CC2CC2)[C@H]1O5` [NMP, N-((4R,4aS,7R,7aR,12bS)-3-(cyclopropylmethyl)-4a,9-dihydroxy-2,3,4,4a,5,6,7,7a-octahydro-1H-4,12-methanobenzofuro[3,2-e]isoquinolin-7-yl)-3-methylisonicotinamide], the Ki at MOR [5] is 0.58 ± 0.25 nM. Moreover, the “Selectivity δ/μ” value on DOR [6] is 470. Moreover, the EC50 at MOR [7] (read-out: MOR 35S-GTP[γS] Binding EC50) was 1.52 ± 0.26 nM. For the same compound, at MOR [7], the “MOR 35S-GTP[γS] Binding % Emax of DAMGO” value is 30.63 ± 0.55%. The “Selectivity κ/μ” value on KOR [8] is reported as 166.

`O=C(N[C@@H]1CCC2(O)C3Cc4ccc(O)c5c4[C@@]2(CCN3CC2CC2)[C@H]1O5)c1ccnc(Br)c1` (some centres unmarked) (as salt: hydrochloride) had a melting point of over 250 °C.

Compound `O=C(N[C@@H]1CCC2(O)C3Cc4ccc(O)c5c4[C@@]2(CCN3CC2CC2)[C@H]1O5)c1ccnc(Cl)c1` (some centres unmarked) (as salt: hydrochloride) came in with a melting point of over 250 °C.

For `C[C@@H](NC(=O)[C@@H](N)Cc1ccc(O)cc1)C(=O)NCC(=O)N(C)[C@@H](Cc1ccccc1)C(=O)NCCO` [DAMGO, reference compound], the “Increase of DAMGO EC50 compared with vehicle treated group” value at MOR [9] (pretreated mMOR-CHO cells) is on record as about 4 fold. Moreover, at MOR [10], the “Emax of DAMGO-stimulated [35S]GTPγS binding after pretreatment (net)” value is on record as 121.62 ± 13.78 fmol/mg.

For `C=CCN1CC[C@]23c4c5ccc(O)c4O[C@H]2C(=O)CC[C@@]3(O)[C@H]1C5` [naloxone, reference compound], in the series with Swiss Webster mice, the “AD50 (antagonism of morphine antinociception)” value worked out at 0.05 mg/kg.

On to `Cc1cc(C(=O)N[C@@H]2CCC3(O)C4Cc5ccc(O)c6c5[C@@]3(CCN4CC3CC3)[C@H]2O6)ccn1` (some centres unmarked) (as salt: hydrochloride), for which the melting point was 248 °C (dec.).

On to “17-Cyclopropylmetyl-3,14β-dihydroxy-4,5α-epoxy-6β-[(3′-carboxyl-4′-pyridyl) acetamido]morphinan [Compound 5]”, for which, on KOR [1], the “Selectivity κ/μ” value is 3.2. Besides, the Ki was 2.43 ± 0.19 nM on KOR [1] (read-out: Ki KOR), 0.76 ± 0.08 nM on MOR [3] and 55.6 ± 6.02 nM at DOR [4] (read-out: Ki DOR). For the same compound, the EC50 at MOR [2] (MOR-CHO membranes) amounted to 1.83 ± 0.18 nM. The “MOR 35S-GTP[γS] Binding % Emax of DAMGO” value at MOR [2] turned out to be 29.27 ± 1.42%. Moreover, at DOR [4], the “Selectivity δ/μ” value is given as 73.2.

For the compound `O=C(N[C@@H]1CC[C@@]2(O)[C@H]3Cc4ccc(O)c5c4[C@@]2(CCN3CC2CC2)[C@H]1O5)c1ccncc1C1CCCCC1` [Compound 10], the Ki on KOR [1] came to 3.32 ± 0.54 nM; on MOR [3] it was 0.78 ± 0.09 nM; at DOR [4] it was 11.2 ± 1.91 nM. Also, the EC50 on MOR [2] (MOR-CHO membranes) is 2.46 ± 0.3 nM. Further, the Emax at MOR [11] (setting [14]) was 51.6 ± 3.73%.

Take `O=C(N[C@@H]1CC[C@@]2(O)[C@H]3Cc4ccc(O)c5c4[C@@]2(CCN3CC2CC2)[C@H]1O5)c1ccncc1-c1ccccc1` [Compound 12]: the Ki on KOR [1] was 3.42 ± 0.38 nM; on MOR [3] it was 0.63 ± 0.05 nM; at DOR [4], 44.8 ± 3.7 nM. Moreover, on MOR [2] (MOR-CHO membranes), the EC50 came out at 1.46 ± 0.18 nM. Moreover, the Emax at MOR [11] (setting [14]) came out at 44.4 ± 3.12%.

In the case of `C[C@H]1O[C@@H](O[C@H]2[C@@H](O)C[C@H](O[C@H]3[C@@H](O)C[C@H](O[C@H]4CC[C@@]5(C)[C@H](CC[C@@H]6[C@@H]5C[C@@H](O)[C@]5(C)[C@@H](C7=CC(=O)OC7)CC[C@]65O)C4)O[C@@H]3C)O[C@@H]2C)C[C@H](O)[C@@H]1O` [digoxin], the PDR in the series on Caco-2 monolayers [12] (after elacridar was added) is 1.2; in the series on Caco-2 monolayers [12] (without elacridar), 5.1.

On to `O=C(N[C@@H]1CC[C@@]2(O)[C@H]3Cc4ccc(O)c5c4[C@@]2(CCN3CC2CC2)[C@H]1O5)c1ccncc1F` [Compound 1], for which the “AD50 (antagonism of morphine antinociception)” value in the series with Swiss Webster mice is reported as 2.82 (1.34-5.94) mg/kg. The “% MPE of morphine (10 mg/kg) in the presence of test compound (antagonism)” value is “antagonized morphine's antinociception effect significantly” in the series on Swiss Webster mice (listed as 1 (NFP)) and 6.2±2.4% with Swiss Webster mice (listed as NFP). In addition, the “Emax of DAMGO-stimulated [35S]GTPγS binding after pretreatment (net)” value at MOR [9] (NFP 1 μM, 24 h pretreatment of mMOR-CHO cells) is 156.20 ± 13.83 fmol/mg. Besides, the Ki on KOR [1] stood at 4.8 ± 0.26 nM; on MOR [3] it was 0.36 ± 0.02 nM; at DOR [4], 157 ± 7.81 nM. Moreover, the “Relative efficacy versus naltrexone” value at MOR [2] (mMOR-CHO membranes) is reported as about 3 fold. Besides, on MOR [2] (MOR-CHO membranes), the EC50 is 1.2 ± 0.19 nM. Also, the “Wet dog shakes, jumps and paw tremors versus naloxone 1 mg/kg” value with morphine-pelleted mice (10 mg/kg s.c., 20 min) was “significantly fewer wet dog shakes, jumps, and paw tremors”. Also, the “Jumps versus naloxone 1 mg/kg” value in the series with morphine-pelleted mice (50 mg/kg s.c.) is “significantly fewer jumps”. The “Wet dog shakes and paw tremors versus naloxone 1 mg/kg” value in the series on morphine-pelleted mice (50 and 100 mg/kg s.c.) is given as “not significantly different from those of naloxone”. In addition, the IC50 at mouse μ opioid receptor was 76.1 ± 2.5 nM. In addition, the “EC50, Ca2+ signal (agonist mode)” value at mouse μ opioid receptor (mMOR-CHO cells transfected with Gαqi5, up to 3 μM) is “did not induce any apparent Ca^2+ signal”. For the same compound, the P-gp substrate entry in the series with Caco-2 monolayers [13] (Caco-2, with or without elacridar) is reported as “may be a P-gp substrate”. Further, the “Papp, B-A (efflux) compared with Papp, A-B (absorption)” value in the series with Caco-2 monolayers [13] (NFP 20 μM, 37° C., 2 h) is “much higher”. In addition, the efflux ratio at 2 h, 20 μM in the series with P-gp (Caco-2, pH 7.4) was determined as 7 ± 0.5; in the series on P-gp (Caco-2, pH 7.4, with elacridar 1 μM), 1.3 ± 0.3. Besides, the Emax at MOR [11] (read-out: Emax, stimulation of [35S]GTPγS binding (normalized to DAMGO), mMOR-CHO membranes, ligand alone, concentration-effect curve) stood at 34.9 ± 1.5%; at MOR [11] (setting [14]) it was 35 ± 3.07%; at MOR [11] (read-out: Maximal inhibition (minimum) as % of maximal stimulation produced by DAMGO, in the presence of 0.3 μM DAMGO, mMOR-CHO membranes) it was 37.7 ± 1.5%. Also, the “Internalization of the MOR” value on rat MOR is on record as “did not”. Besides, the “Antinociception (% MPE) of morphine in NFP group relative to vehicle-treated group, Day 1” value in the series on C57BL/6J mice (NFP 0.3 mg/kg s.c. pretreatment, 10 mg/kg cumulative morphine, p=0.0013) was “significantly less antinociception”. Besides, the “Antinociception (% MPE) of morphine in NFP group relative to Vehicle Group, Day 7” value in the series on C57BL/6J mice (after five days of 10 mg/kg morphine + 0.3 mg/kg NFP, 32 mg/kg cumulative morphine, p=0.0138) was “significantly less antinociception”.

On to `COc1cc(C(=O)N[C@@H]2CCC3(O)C4Cc5ccc(O)c6c5[C@@]3(CCN4CC3CC3)[C@H]2O6)ccn1` (some centres unmarked) (as salt: hydrochloride), for which the melting point was 244 to 248 °C (dec.).

Consider `N#Cc1cnccc1C(=O)N[C@@H]1CC[C@@]2(O)[C@H]3Cc4ccc(O)c5c4[C@@]2(CCN3CC2CC2)[C@H]1O5` [Compound 2], for which the “% MPE of morphine (10 mg/kg) in the presence of test compound (antagonism)” value with Swiss Webster mice (listed as 2 (NYP)) is given as “antagonized morphine's antinociception effect significantly”; in the series with Swiss Webster mice (listed as NYP), 7.8±5.4%. Further, the figures for the Ki at KOR [1], at MOR [3] and at DOR [4] were 2.74 ± 0.47 nM, 0.87 ± 0.09 nM and 46.3 ± 7.86 nM, respectively. The EC50 at MOR [2] (MOR-CHO membranes) is 1.28 ± 0.2 nM. For the same compound, the “Wet dog shakes and jumps versus naloxone 1 mg/kg” value in the series with morphine-pelleted mice (1 mg/kg s.c.) was “significantly fewer wet dog shakes and jumps”. The Emax at MOR [11] (setting [14]) was found to be 26.1 ± 0.74%.

At KOR [1], `CC(C)Cc1cnccc1C(=O)N[C@@H]1CC[C@@]2(O)[C@H]3Cc4ccc(O)c5c4[C@@]2(CCN3CC2CC2)[C@H]1O5` [Compound 8] came in with a Ki of 75.6 ± 3.87 nM. Further, on MOR [2] (MOR-CHO membranes), the “MOR 35S-GTP[γS] Binding EC50” value is listed as “lowest potency” and the EC50 came out at 19.7 ± 2.37 nM. Also, on MOR [3], the Ki was 7.2 ± 0.81 nM and the “Ki MOR” value is recorded as “nanomolar binding affinity”. Besides, the Ki at DOR [4] came out at 149 ± 16 nM. The Emax on MOR [11] (setting [14]) was determined as 27.3 ± 0.25%.
